In ChEMBL document CHEMBL6115000, “Discovery of a first-in-class PROTAC degrader of histone lysine demethylase KDM4” (Eur J Med Chem, 2025):
Calls of active or inactive are those of the source. The rule behind the calls is not given here.

Columns and labels:
[1] = target: T1, von Hippel-Lindau disease tumor suppressor/Lysine-specific demethylase 4A (Homo sapiens, UniProt O75164+P40337); test: PROTAC activity at VHL/KDM4A in human KYSE-150 cells assessed as induction of KDM4A degradation at 500 nM measured for 8 to 36 hrs by Western blot analysis; assay type: cell-based; conditions: KYSE-150 cell line, time 8-36 hrs
[2] = target: von Hippel-Lindau disease tumor suppressor/Lysine-specific demethylase 4B (Homo sapiens, UniProt P40337+O94953); test: PROTAC activity at VHL/KDM4B in human KYSE-150 cells assessed as induction of KDM4B degradation measured after 24 hrs by Western blot analysis; assay type: cell-based
[3] = target: T1, von Hippel-Lindau disease tumor suppressor/Lysine-specific demethylase 4A; test: PROTAC activity at VHL/KDM4A in human KYSE-150 cells assessed as induction of KDM4A degradation at 50 nM incubated for 24 hrs in presence of Ac-VHL-Me by Western blot analysis; assay type: cell-based; conditions: KYSE-150 cell line
[4] = Induction of cell cycle arrest in human KYSE-150 cells assessed as accumulation of cells at G0/G1 phase at 12.3 nM incubated for 24 hrs by flow cytometry (reference value: 65.08 %); assay type: functional
[5] = target: T1, von Hippel-Lindau disease tumor suppressor/Lysine-specific demethylase 4A; test: PROTAC activity at VHL/KDM4A in human KYSE-150 cells assessed as induction of KDM4A degradation upto 1000 nM by Western blot analysis; assay type: cell-based; conditions: KYSE-150 cell line
[6] = Induction of cell cycle arrest in human KYSE-150 cells assessed as accumulation of cells at G2/M phase at 111.1 nM incubated for 24 hrs by flow cytometry (reference value: 21.64 %); assay type: functional
[7] = Induction of cell cycle arrest in human KYSE-150 cells assessed as accumulation of cells at S pahse at 12.3 nM incubated for 24 hrs by flow cytometry (reference value: 13.15 %); assay type: functional
[8] = Induction of apoptosis in human KYSE-150 cells assessed as necrotic cells at 333.3 nM incubated for 72 hrs by Annexin V-PE/7-AAD staining based flow cytometry (reference value: 4.28 %); assay type: functional
[9] = target: T2, von Hippel-Lindau disease tumor suppressor/Lysine-specific demethylase 4C (Homo sapiens, UniProt Q9H3R0+P40337); test: PROTAC activity at VHL/KDM4C in human KYSE-150 cells assessed as induction of KDM4C degradation upto 1000 nM measured after 24 hrs by Western blot analysis relative to control; assay type: cell-based; conditions: KYSE-150 cell line
[10] = Induction of apoptosis in human KYSE-150 cells assessed as late apoptotic cells at 37 nM incubated for 72 hrs by Annexin V-PE/7-AAD staining based flow cytometry (reference value: 5.98 %); assay type: functional
[11] = target: T1, von Hippel-Lindau disease tumor suppressor/Lysine-specific demethylase 4A; test: PROTAC activity at VHL/KDM4A in human KYSE-150 cells assessed as induction of KDM4A degradation upto 1000 nM measured after 24 hrs by Western blot analysis relative to control; assay type: cell-based; conditions: KYSE-150 cell line
[12] = Induction of apoptosis in human KYSE-150 cells assessed as late apoptotic cells at 333.3 nM incubated for 72 hrs by Annexin V-PE/7-AAD staining based flow cytometry (reference value: 5.98 %); assay type: functional
[13] = target: T1, von Hippel-Lindau disease tumor suppressor/Lysine-specific demethylase 4A; test: PROTAC activity at VHL/KDM4A in human KYSE-150 cells assessed as induction of KDM4A degradation at 0.1 uM incubated for 12 hrs by Western blot analysis relative to control; assay type: cell-based; conditions: KYSE-150 cell line
[14] = target: T2, von Hippel-Lindau disease tumor suppressor/Lysine-specific demethylase 4C; test: PROTAC activity at VHL/KDM4C in human KYSE-150 cells assessed as induction of KDM4C degradation upto 1000 nM by Western blot analysis; assay type: cell-based; conditions: KYSE-150 cell line
[15] = target: T1, von Hippel-Lindau disease tumor suppressor/Lysine-specific demethylase 4A; test: PROTAC activity at VHL/KDM4A in human KYSE-150 cells assessed as induction of KDM4A degradation at 1 uM incubated for 12 hrs by Western blot analysis relative to control; assay type: cell-based; conditions: KYSE-150 cell line
[16] = Induction of cell cycle arrest in human KYSE-150 cells assessed as accumulation of cells at G2/M phase at 1000 nM incubated for 24 hrs by flow cytometry (reference value: 21.64 %); assay type: functional
[17] = Induction of apoptosis in human KYSE-150 cells assessed as early apoptotic cells at 333.3 nM incubated for 72 hrs by Annexin V-PE/7-AAD staining based flow cytometry (reference value: 5.27 %); assay type: functional
[18] = target: T1, von Hippel-Lindau disease tumor suppressor/Lysine-specific demethylase 4A; test: PROTAC activity at VHL/KDM4A in human KYSE-150 cells assessed as increase in H3K36me3 level incubated for 24 hrs by Western blot analysis; assay type: cell-based; conditions: KYSE-150 cell line, dose <= 1000.0 nM
[19] = Induction of apoptosis in human KYSE-150 cells assessed as late apoptotic cells at 12.3 nM incubated for 72 hrs by Annexin V-PE/7-AAD staining based flow cytometry (reference value: 5.98 %); assay type: functional
[20] = Induction of apoptosis in human KYSE-150 cells assessed as necrotic cells at 37 nM incubated for 72 hrs by Annexin V-PE/7-AAD staining based flow cytometry (reference value: 4.28 %); assay type: functional
[21] = Induction of apoptosis in human KYSE-150 cells assessed as early apoptotic cells at 37 nM incubated for 72 hrs by Annexin V-PE/7-AAD staining based flow cytometry (reference value: 5.27 %); assay type: functional
[22] = Induction of apoptosis in human KYSE-150 cells assessed as early apoptotic cells at 12.3 nM incubated for 72 hrs by Annexin V-PE/7-AAD staining based flow cytometry (reference value: 5.27 %); assay type: functional
[23] = Induction of cell cycle arrest in human KYSE-150 cells assessed as accumulation of cells at S pahse at 111.1 nM incubated for 24 hrs by flow cytometry (reference value: 13.15 %); assay type: functional
[24] = target: von Hippel-Lindau disease tumor suppressor/Lysine-specific demethylase 4D (Homo sapiens, UniProt Q6B0I6+P40337); test: PROTAC activity at VHL/KDM4D in human KYSE-150 cells assessed as induction of KDM4D degradation measured after 24 hrs by Western blot analysis; assay type: cell-based; conditions: kyse-150 cell line
von Hippel-Lindau disease tumor suppressor/Lysine-specific demethylase 4D, sequence (Q6B0I6 whole entry): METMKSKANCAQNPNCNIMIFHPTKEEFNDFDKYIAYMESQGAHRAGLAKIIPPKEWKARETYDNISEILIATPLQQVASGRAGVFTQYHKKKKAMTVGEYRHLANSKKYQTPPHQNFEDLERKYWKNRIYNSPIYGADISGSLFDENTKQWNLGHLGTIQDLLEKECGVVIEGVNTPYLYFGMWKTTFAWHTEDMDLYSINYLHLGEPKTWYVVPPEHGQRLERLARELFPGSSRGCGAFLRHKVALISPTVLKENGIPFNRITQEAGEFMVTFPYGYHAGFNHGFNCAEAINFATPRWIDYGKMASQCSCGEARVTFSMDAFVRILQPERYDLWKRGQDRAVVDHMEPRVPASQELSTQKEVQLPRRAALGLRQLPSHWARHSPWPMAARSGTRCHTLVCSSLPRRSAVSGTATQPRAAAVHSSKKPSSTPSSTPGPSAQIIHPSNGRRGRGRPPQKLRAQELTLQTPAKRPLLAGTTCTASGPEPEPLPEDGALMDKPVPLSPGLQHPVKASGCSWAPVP
von Hippel-Lindau disease tumor suppressor/Lysine-specific demethylase 4D, sequence (P40337 whole entry): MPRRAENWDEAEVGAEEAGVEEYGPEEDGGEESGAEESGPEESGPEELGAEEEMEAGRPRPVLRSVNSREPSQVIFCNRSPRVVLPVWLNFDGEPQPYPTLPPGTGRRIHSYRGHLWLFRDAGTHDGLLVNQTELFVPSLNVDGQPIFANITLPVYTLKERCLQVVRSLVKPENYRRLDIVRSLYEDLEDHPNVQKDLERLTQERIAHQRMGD

T1 sequence (O75164 2-1064 limits assumed): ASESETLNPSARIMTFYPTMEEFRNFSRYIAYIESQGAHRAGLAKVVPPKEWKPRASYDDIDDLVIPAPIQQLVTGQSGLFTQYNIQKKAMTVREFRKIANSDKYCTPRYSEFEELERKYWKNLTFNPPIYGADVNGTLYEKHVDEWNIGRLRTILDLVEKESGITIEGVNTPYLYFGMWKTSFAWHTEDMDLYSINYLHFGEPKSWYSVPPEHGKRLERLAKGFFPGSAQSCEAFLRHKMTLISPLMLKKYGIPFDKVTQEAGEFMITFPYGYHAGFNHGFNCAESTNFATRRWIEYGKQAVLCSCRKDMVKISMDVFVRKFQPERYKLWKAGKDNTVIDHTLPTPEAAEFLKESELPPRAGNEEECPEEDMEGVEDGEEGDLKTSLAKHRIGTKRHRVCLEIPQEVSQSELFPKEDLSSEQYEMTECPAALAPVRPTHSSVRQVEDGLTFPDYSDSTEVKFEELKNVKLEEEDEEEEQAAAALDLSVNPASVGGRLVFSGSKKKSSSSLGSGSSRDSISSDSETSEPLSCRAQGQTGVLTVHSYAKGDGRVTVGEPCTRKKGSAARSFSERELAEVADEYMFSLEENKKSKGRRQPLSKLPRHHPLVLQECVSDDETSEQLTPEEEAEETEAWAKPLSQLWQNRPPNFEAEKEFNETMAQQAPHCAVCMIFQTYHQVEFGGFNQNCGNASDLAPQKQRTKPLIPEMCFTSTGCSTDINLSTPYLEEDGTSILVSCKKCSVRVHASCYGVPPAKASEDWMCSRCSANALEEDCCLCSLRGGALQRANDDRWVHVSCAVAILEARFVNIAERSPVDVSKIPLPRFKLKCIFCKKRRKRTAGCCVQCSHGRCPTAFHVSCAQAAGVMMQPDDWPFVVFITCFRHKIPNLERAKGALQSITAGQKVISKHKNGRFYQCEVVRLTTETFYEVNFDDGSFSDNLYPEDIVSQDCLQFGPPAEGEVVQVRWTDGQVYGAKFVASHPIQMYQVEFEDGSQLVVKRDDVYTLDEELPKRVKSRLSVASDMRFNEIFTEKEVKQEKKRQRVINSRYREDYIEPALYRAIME
T1 sequence (P40337 whole entry partner): as the sequence (P40337 whole entry) above
T2 sequence (P40337 whole entry, looked up): as the sequence (P40337 whole entry) above
T2 sequence (Q9H3R0 whole entry, looked up): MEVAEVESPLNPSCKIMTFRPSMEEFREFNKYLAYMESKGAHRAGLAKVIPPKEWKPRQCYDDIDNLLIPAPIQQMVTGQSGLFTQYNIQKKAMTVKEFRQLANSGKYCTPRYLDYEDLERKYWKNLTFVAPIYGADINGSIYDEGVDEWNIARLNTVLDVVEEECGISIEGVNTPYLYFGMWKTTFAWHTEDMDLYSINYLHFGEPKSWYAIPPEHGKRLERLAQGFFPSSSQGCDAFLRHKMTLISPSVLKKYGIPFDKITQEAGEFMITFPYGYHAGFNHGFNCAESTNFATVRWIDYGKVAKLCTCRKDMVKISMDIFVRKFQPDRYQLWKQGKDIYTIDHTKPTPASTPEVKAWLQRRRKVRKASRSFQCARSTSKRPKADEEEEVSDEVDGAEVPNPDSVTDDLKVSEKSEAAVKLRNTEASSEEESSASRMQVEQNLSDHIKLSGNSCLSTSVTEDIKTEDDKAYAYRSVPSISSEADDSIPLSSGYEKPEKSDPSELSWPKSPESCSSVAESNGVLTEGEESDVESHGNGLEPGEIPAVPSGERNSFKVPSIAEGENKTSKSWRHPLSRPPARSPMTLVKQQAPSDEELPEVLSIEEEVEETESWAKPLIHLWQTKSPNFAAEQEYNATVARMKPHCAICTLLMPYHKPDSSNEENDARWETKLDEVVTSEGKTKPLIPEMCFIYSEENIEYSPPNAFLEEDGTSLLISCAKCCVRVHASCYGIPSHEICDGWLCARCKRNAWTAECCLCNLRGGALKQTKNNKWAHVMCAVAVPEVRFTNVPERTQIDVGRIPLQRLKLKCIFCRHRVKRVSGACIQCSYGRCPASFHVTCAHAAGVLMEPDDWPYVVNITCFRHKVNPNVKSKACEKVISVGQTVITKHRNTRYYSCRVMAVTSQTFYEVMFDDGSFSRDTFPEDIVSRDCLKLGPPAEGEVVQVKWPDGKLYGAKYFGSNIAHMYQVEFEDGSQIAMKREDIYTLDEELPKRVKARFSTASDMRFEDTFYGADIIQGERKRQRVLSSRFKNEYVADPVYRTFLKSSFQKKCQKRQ

Activity [1]: Active
Activity ([2]; KYSE-150 cell line): Dose-dependent-effect
DC50 ([2]; kyse-150 cell line): 39.9 nM
Activity [3]: inactive
Activity [5]: Time-dependent-effect
Emax [9]: 77.8%
Emax [11]: 83.3%
Activity [13]: 44.9%
Activity [14]: Time-dependent-effect
Activity [15]: 57.2%
Activity [18]: Active
DC50 [24]: > 1000 nM
SMILES: Cc1ncsc1-c1ccc([C@H](C)NC(=O)[C@@H]2C[C@@H](O)CN2C(=O)[C@@H](NC(=O)CCCCCCCCCOc2ccc(N(C)c3ccc4c(c3)OCC[C@H]4CNc3cnccc3C(=O)O)cc2)C(C)(C)C)cc1
Activity [4]: 69.11%
Activity [6]: 12.48%
Activity [7]: 14.42%
Activity [8]: 4.83%
Activity [10]: 43.51%
Activity [12]: 48.79%
Activity [16]: 12.05%
Activity [17]: 26.6%
Activity [19]: 18.97%
Activity [20]: 7.7%
Activity [21]: 18.22%
Activity [22]: 10.63%
Activity [23]: 14.35%
